The record followed here is patent US20170114025A1, “METHODS FOR INHIBITING NECROPTOSIS” (Catalyst Therapeutics Pty Ltd, priority 2014, published 2017).

The structures appear in SMILES notation. Read-outs that look alike come from different tables or passages of the source.

In assay [1] the target is T1, mouse MLKL(179-464) pseudokinase domain (Mus musculus, UniProt Q9D2Y4).
T1 construct: made in house; host or cells: Sf21 insect cells
T1 sequence (Q9D2Y4 179-464 isoform Q9D2Y4-2): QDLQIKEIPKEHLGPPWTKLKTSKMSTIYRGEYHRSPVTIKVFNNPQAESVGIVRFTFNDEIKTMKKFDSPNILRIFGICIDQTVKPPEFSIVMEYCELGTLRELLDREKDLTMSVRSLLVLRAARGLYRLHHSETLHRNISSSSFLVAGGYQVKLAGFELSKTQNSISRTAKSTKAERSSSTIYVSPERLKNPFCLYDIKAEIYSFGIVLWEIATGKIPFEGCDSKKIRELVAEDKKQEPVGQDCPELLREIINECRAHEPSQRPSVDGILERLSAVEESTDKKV
Nature of the assay: STD NMR nucleotide competition, mouse MLKL. The class given is binding. Conditions: 200 μM compound, 200 μM nucleotide, 2 μM mouse MLKL(179-464). On the procedure:
(§1) Nucleotides were dissolved in NMR buffer (20 mM HEPES, pH 7.5, 200 mM NaCl, 90% D2O, 10% H2O) at a final concentration of 200 μM in each sample of STD experiments. Three different samples were prepared for each nucleotide: (1) ATP or ADP with protein buffer added as equivalent volume of protein containing samples (2) ATP or ADP with MLKL pseudokinase domain at a final concentration of 2 μM (3) ATP or ADP with MLKL pseudokinase domain (2 μM) with test compound at 200 μM. […] Saturation of the protein resonances was achieved by a 4 s train of Gaussian pulses centred at −0.5 ppm. For the reference spectra, a similar saturation pulse was applied at a frequency centred 20,000 Hz off-resonance. A 15 ms T2-spin-lock period was employed before acquisition to allow the residual protein signal to decay. NMR data were processed in TOPSPIN version 3.2 (Bruker BioSpin).

Assay [2] deals with U937 cells gene-edited to delete MLKL. Nature of the assay: Toxicity / TS-induced apoptotic death in U937 cells gene-edited to delete MLKL. The class given is cell-based, human. Conditions: U937 cells lacking MLKL, TS treatment. From the text:
(§2) Mouse dermal fibroblasts (MDFs) were isolated from three MlkI^−/− mice and three congenic wild type mice and then immortalized by SV40 large T antigen to generate three biologically independent cell lines, as described in Murphy J M, et al. (2013), Immunity 39(3):443-453. Immortalized MDFs were similarly prepared from three Ripk3^−/− mice and congenic wild type mice. MDFs and HEK293T were maintained in Dulbecco's modified Eagle's medium (DMEM) supplemented with 8-10% v/v fetal calf serum (FCS), and 5 μg/mL puromycin for lines stably transduced with inducible expression constructs for MLKL. U937 cells were cultured in RPMI1640 supplemented with 8% v/v FCS. Cell death assays were carried out in 24 well plates, seeding 1×10^5 cells per well. Cells attached over 4 h in the presence of 10 ng/mL doxycycline or 20 ng/mL were then treated with assorted combinations of Necrostatin (50 μM) and Q-VD-OPh (5 μM) 30 min prior to addition of TNF (100 ng/mL) and Smac mimetic (500 nM). After 24 h for MDF cells or 48 h for U937 cells, cells were harvested and PI positive cells (1 μg/mL) quantified using a BD FACSCalibur flow cytometer.

Assay [3] relates to transformed iBMDMs. Nature of the assay: Poly(I:C) experiment, RIP1-independent necroptosis. The note with it: poly:IC 50 ug/ml, zVAD 25 uM, 48 hrs. The class given is cell-based. As to the method: Cells were harvested after 48 hrs. Cell death was analysed via propidium iodide staining and flow cytometry.
In assay [4] the test system is MLKL translocation in MDFs. Nature of the assay: Fractionation and Blue Native PAGE, MLKL membrane translocation. Conditions: TSQ up to 6 hours, 1 μM test compound, anti-MLKL blots of Blue-Native PAGE. In kind it is cell-based, mouse. As to the method:
MDFs were seeded in 6 well plates (5×10^5 per well) and allowed to attach overnight. Cells were stimulated with TSQ for up to 6 hours in the presence of 1 μM test compound or DMSO control. Cells were harvested by scraping, washed once in PBS and permeabilized in buffer (20 mM Hepes (pH 7.5), 100 mM KCl, 2.5 mM MgCl2, and 100 mM sucrose) containing 0.025% digitonin (BIOSYNTH, Staad, Switzerland) and supplemented with EDTA-free Complete protease inhibitor cocktail (Roche), 2 μM N-ethyl maleimide, and phosphatase inhibitors (5 mM β-glycerophosphate, 1 mM Na Molybdate, 1 mM Na Pyrophosphate and 100 μM Na Fluoride). Permeabilization was confirmed by trypan blue uptake, and cytosolic and crude membrane fractions were separated by centrifugation at 11,000×g for 5 min. Digitonin was added to the cytoplasmic fraction to a final concentration of 1% and the crude membrane fraction was further solubilized in permeabilization buffer+1% digitonin and incubated on ice for 20 min. Crude membrane suspension was centrifuged at 11,000×g for 5 min and the supernatant loaded alongside cytoplasmic fraction on 4-16% Bis-Tris Native PAGE gel (LifeTechnologies). […] MLKL containing complexes were detected by anti-MLKL (3H1) Western blotting as described above.

Assay [5] has as its system wild type U937 cells. Nature of the assay: Cell death assay, TSQ-induced necroptosis in U937 cells (PI, flow cytometry). The class given is cell-based, human. The note with it: for IC50: Homo sapiens.
Source text: as §2

For assay [6], the target named is T2, human MLKL(190-471) pseudokinase domain (Homo sapiens, UniProt Q8NB16).
T2 sequence (Q8NB16 190-471): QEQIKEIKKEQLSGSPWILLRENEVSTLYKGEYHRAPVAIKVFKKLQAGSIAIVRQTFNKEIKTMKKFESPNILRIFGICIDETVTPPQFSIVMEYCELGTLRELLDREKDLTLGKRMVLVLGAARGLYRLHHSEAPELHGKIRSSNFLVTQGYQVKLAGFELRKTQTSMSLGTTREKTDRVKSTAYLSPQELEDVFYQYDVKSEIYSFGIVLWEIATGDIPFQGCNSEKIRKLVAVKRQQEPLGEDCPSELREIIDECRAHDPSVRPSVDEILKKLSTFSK
Nature of the assay: STD NMR nucleotide competition, human MLKL. The note with it: 200 μM compound, 200 μM nucleotide, 2 μM human MLKL(190-471). More on the design: His6 (pFastBac HTb, TEV-cleavable) (N, cleaved yes); made in house; host or cells: Sf21 insect cells. In kind it is binding. On the procedure:
as §1

For assay [7], the target named is T3, recombinant RIPK3 (Mus musculus, UniProt Q9QZL0).
T3 construct: Recombinant mRIPK3 kinase domain was expressed and purified from Sf21 cells; made in house; host or cells: Sf21 cells
T3 sequence (Q9QZL0 22-292 limits assumed): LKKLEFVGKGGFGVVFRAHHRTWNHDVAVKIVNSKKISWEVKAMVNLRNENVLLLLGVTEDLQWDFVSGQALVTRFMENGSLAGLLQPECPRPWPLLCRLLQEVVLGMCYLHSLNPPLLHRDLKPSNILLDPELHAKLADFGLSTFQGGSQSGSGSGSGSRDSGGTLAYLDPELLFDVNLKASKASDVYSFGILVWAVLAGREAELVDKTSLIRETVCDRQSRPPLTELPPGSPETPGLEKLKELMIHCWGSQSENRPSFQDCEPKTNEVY
Nature of the assay: In vitro kinase assay. In kind it is biochemical. The note with it: for concentrations leading to enhanced RIPK3-mediated phosphorylation of MLKL: mouse MLKL(179-464) as substrate. As to the method: In vitro kinase assays were performed as described previously in Murphy J M, et al. (2013), Immunity 39(3):443-453 and Cook W D, et al. (2014) Cell Death Diff. in press, but for the addition of either a DMSO control or up to 12.5 μM of test compound in 0.5% v/v final DMSO.

For `CN(c1ccc(NC(=O)Nc2ccc(OC(F)(F)F)cc2)cc1)c1ccnc(Nc2cccc(S(N)(=O)=O)c2)n1` [Compound 1, 3-((4-(methyl(4-(3-(4-(trifluoromethoxy)phenyl)ureido)phenyl)amino)pyrimidin-2-yl)amino)benzenesulfonamide], the “competition with ATP and ADP for binding (STD NMR)” value was “can compete with (i) ATP and (ii) ADP” in assay [1]; “can compete with (i) ATP and (ii) ADP” in assay [6]. Besides, the “effect on TS-induced apoptotic death” value in assay [2] was “unaffected”. For the same compound, in assay [3], the “inhibition of Poly(I:C) and zVAD induced necroptosis” value was “inhibits Poly(I:C) and zVAD induced necroptosis”. Also, in assay [4], the “MLKL translocation to the membrane fraction” value is “retarded translocation to the membrane fraction”. For the same compound, the IC50 (in general, the midpoint of a concentration-inhibition curve) in assay [5] (U-937, 48 h, read-out: IC50, rescue from TSQ-induced necroptosis) lay in the range of 50 to 100 nM; in assay [5] (U-937, read-out: Inhibition of necroptosis (IC50)), 50 to 100 nM. The “cells rescued from TSQ-induced necroptosis” value in assay [5] (wt U937 cells, 48 h) is around 50%. The “inhibition of RIPK3 catalytic activity and of RIPK3-mediated phosphorylation of MLKL” value in assay [7] (in vitro kinase assays) is given as “neither the catalytic activity of recombinant RIPK3 nor RIPK3-mediated phosphorylation of MLKL were inhibited”. The “concentrations leading to enhanced RIPK3-mediated phosphorylation of MLKL” value in assay [7] is at least 10 µM; in assay [7] (listed as compound 1), above 5 µM. The “impact on recombinant RIPK3 kinase activity” value in assay [7] (relative to DMSO control, up to 12.5 μM test compound) is “no impact”.
